Experimental data from US10435402B2, “Bicyclic compounds, compositions and medicinal applications thereof” (Advinus Therapeutics Limited, priority 2015, dated 2019).

The compounds below were run against T1, GAL4-DBD/RORγ-LBD (Homo sapiens, UniProt P51449) (assay: RORγt transactivation reporter assay (GAL4-DBD/RORγ-LBD, luciferase read out)). Conditions: HEK293T cells, GAL4-UAS luciferase reporter, overnight (18-24 hours) incubation.
T1 construct: expressed in transfected cells; host or cells: HEK293T
T1 sequence (P51449 269-508 limits assumed): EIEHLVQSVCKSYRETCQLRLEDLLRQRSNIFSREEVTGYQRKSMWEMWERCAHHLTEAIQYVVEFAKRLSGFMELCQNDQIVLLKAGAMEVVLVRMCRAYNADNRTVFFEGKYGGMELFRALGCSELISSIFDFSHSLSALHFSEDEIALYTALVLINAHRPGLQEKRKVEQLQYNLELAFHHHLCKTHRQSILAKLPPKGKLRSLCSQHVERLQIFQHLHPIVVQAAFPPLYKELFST
T1 sequence (P04386 1-147 partner limits assumed): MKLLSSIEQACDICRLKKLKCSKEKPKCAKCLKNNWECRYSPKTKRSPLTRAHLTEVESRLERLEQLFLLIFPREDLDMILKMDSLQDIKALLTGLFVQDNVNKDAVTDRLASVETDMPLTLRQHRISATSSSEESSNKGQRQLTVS
Format: cell-based
Method in brief: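 HEK293T cells were transiently co-transfected with GAL4-DBD/RORγt-LBD (SV40-Renilla transfection control) and a 9×GAL4-UAS firefly Luc2P reporter. Compounds (0.4% DMSO in the compound solution) were added 5 h post-transfection in FBS-free DMEM for 18–24 h at 37 °C. IC50 was taken from the normalised Dual-Glo luciferase signal.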

Row | IC50 [nM] | Compound
1 | < 500 | O=C(O)c1ccc(-c2cc(C(=O)c3c(Cl)cccc3C(F)(F)F)n3c2CCCC3)cc1 [Example H-1, 4-[3-[2-chloro-6-(trifluoromethyl)benzoyl]-5,6,7,8-tetrahydroindolizin-1-yl]benzoic acid]
2 | < 500 | Cc1c(-c2ccc(C(=O)O)cc2F)c2n(c1C(=O)c1c(Cl)cccc1Cl)CCCC2 [Example H-2, 4-[3-(2,6-dichlorobenzoyl)-2-methyl-5,6,7,8-tetrahydroindolizin-1-yl]-3-fluoro-benzoic acid]
3 | > 5000 | O=C(O)c1ccc(-c2cc(C(=O)c3c(Cl)cccc3C(F)(F)F)n3c2CCCC3)c(F)c1 [Example H-4, 4-[3-[2-chloro-6-(trifluoromethyl)benzoyl]-5,6,7,8-tetrahydroindolizin-1-yl]-3-fluoro-benzoic acid]
4 | < 500 | O=C(O)c1ccc(-c2nc(C(=O)c3c(Cl)ccc(F)c3Cl)n3ccccc23)cc1 [Example I-1, Sodium 4-[3-(2,6-dichloro-3-fluoro-benzoyl)imidazo[1,5-a]pyridin-1-yl]benzoate]
5 | < 500 | O=C(O)c1ccc(-c2cc(Cc3c(F)cccc3Cl)n3ccccc23)cc1 [Example J-1, 4-[3-[(2-chloro-6-fluoro-phenyl)methyl]indolizin-1-yl]benzoic acid]

More lines, now with the values behind:

Row | Compound | IC50 [nM]
6 | CCS(=O)(=O)N1CCC=C(c2cc(C(=O)c3c(Cl)ccc(F)c3Cl)n3ccccc23)C1 [Example G-2, (2,6-dichloro-3-fluoro-phenyl)-[1-(1-ethylsulfonyl-3,6-dihydro-2H-pyridin-5-yl)indolizin-3-yl]methanone] | > 5000
7 | (2,6-dichlorophenyl)-[1-(4-methylsulfonylphenyl)indolizin-3-yl]methanone [Example A-20] | > 5000
8 | ethyl 4-[3-(2-bromo-6-methyl-benzoyl)indolizin-1-yl]benzoate [Example A-66] | < 500
9 | ethyl 4-[3-(2-chloro-6-fluoro-benzoyl)-8-fluoro-indolizin-1-yl]-3-fluoro-benzoate [Example A-33] | < 500
10 | ethyl 4-[3-(2-chloro-6-fluoro-benzoyl)indolizin-1-yl]-3-fluoro-benzoate [Example A-25] | < 500
